Patent US9062324B2, “Herbicide tolerant soybean plants and methods for identifying same” (M.S. TECHNOLOGIES LLC, priority 2009, dated 2015)

Experiments:
[1] = system: soybean plants comprising EE-GM3; assay: field trials of EE-GM3 in different commercial genetic backgrounds, herbicide challenge; type: in vivo, Glycine max; conditions: glyphosate and/or isoxaflutole, different treatments, different locations and genetic backgrounds
Excerpt: The selected event EE-GM3 was introduced in different commercial genetic backgrounds, and results of field trials on different locations were compared. Plants were challenged with glyphosate herbicide and/or isoxaflutole herbicide using different treatments. […] Hundreds of different soybean cultivars containing event EE-GM3 were used in an inheritance study, and herbicides were applied. Selected lines from this trial were later increased in the field and also treated with herbicide. From that trial, 50 selected lines were increased, and these were also herbicide treated.

[2] = system: soybean plants comprising EE-GM3 and EE-GM2; assay: field trial of lines combining EE-GM3 and EE-GM2 sprayed with glyphosate and glufosinate; type: in vivo, Glycine max; conditions: approximately 40 lines homozygous for tolerance to both herbicides
Excerpt: A soybean plant containing a combination of elite events EE-GM3 and EE-GM2 has been obtained by conventional crossing between a parent soybean plant comprising EE-GM3 and a parent soybean plant comprising EE-GM2. Progeny plants comprising both events are identified using PCR Identification Protocols for EE-GM2 and EE-GM3 as described herein. Specifically, crosses were made with plants containing EE-GM3 and plants containing EE-GM2. The resulting F1 plants were crossed to 4 conventional lines. The F1s from these crosses were grown in the field and sprayed with glyphosate and glufosinate. F2 seed harvested from F1 plants resistant to both herbicides was then planted. The F2 plants were sprayed with both glyphosate and glufosinate. Nine hundred plants tolerant to both herbicides were harvested and planted in a field trial. Expected Mendelian segregation data for the events was obtained in this trial. Approximately 40 lines homozygous for tolerance to both herbicides were selected for agronomic uniformity for further studies.

Row | SMILES | herbicide tolerance of plants [1] | tolerance of selected homozygous lines to herbicide [2]
1 | CS(=O)(=O)c1cc(C(F)(F)F)ccc1C(=O)c1cnoc1C1CC1 [IFT, (5-cyclopropyl-4-isoxazolyl)[2-(methylsulfonyl)-4-(trifluoromethyl)phenyl]methanone] | good herbicide tolerance | –
2 | CP(=O)(O)CCC(N)C(=O)O (stereo not shown) [glufosinate] | – | good tolerance
3 | O=C(O)CNCP(=O)(O)O [glyphosate] | good herbicide tolerance | good tolerance
